The record followed here is ChEMBL document CHEMBL1155954, “A concise approach to 1,11-didechloro-6-methyl-4'-O-demethyl rebeccamycin and its binding to human serum albumin: fluorescence spectroscopy and molecular modeling method” (Bioorg Med Chem, 2008).

Series [1] addresses T1, Albumin (Homo sapiens, UniProt P02768). Description: Binding affinity to human serum albumin at 289 kelvin by fluorescence quenching measurement. The format is ADME. Conditions: isolated protein.
For series [2], the target named is T1, Albumin. Kind of series: Binding affinity to human serum albumin at 299 kelvin by fluorescence quenching measurement. The format is ADME. Conditions: isolated protein.
Series [3] has as its target T1, Albumin. Kind of series: Binding affinity to human serum albumin at 309 kelvin by fluorescence quenching measurement. The class given is ADME. Conditions: isolated protein.
In series [4] the target is T1, Albumin. Kind of series: Binding affinity to human serum albumin at 289 kelvin by fluorescence quenching measurement in presence of Ca2+ ions. The class given is ADME. Conditions: isolated protein.
Series [5] concerns the target T1, Albumin. Description: Binding affinity to human serum albumin at 289 kelvin by fluorescence quenching measurement in presence of Fe3+ ions. The format is ADME. Conditions: isolated protein.
In series [6] the target is T1, Albumin. Description: Binding affinity to human serum albumin at 289 kelvin by fluorescence quenching measurement in presence of F- ions. Conditions: isolated protein. The class given is ADME.
Series [7] has as its target T1, Albumin. Description: Binding affinity to human serum albumin at 289 kelvin by fluorescence quenching measurement in presence of [Sio3]2- ions. Particulars: isolated protein. The class given is ADME.
The target of series [8] is T1, Albumin. Kind of series: Binding affinity to human serum albumin at 289 kelvin by fluorescence quenching measurement in presence of Pb2+ ions. Particulars: isolated protein. The format is ADME.
Series [9] has as its target T1, Albumin. Description: Binding affinity to human serum albumin at 289 kelvin by fluorescence quenching measurement in presence of [CO3]2- ions. The class given is ADME. Particulars: isolated protein.
Series [10] deals with T1, Albumin. Description: Binding affinity to human serum albumin at 289 kelvin by fluorescence quenching measurement in presence of Mg2+ ions. The format is ADME. Particulars: isolated protein.
For series [11], the target named is T1, Albumin. Description: Binding affinity to human serum albumin at 289 kelvin by fluorescence quenching measurement in presence of [SO4]2- ions. Particulars: isolated protein. The format is ADME.
Series [12] concerns the target T1, Albumin. Kind of series: Binding affinity to human serum albumin at 289 kelvin by fluorescence quenching measurement in presence of Ni2+ ions. Particulars: isolated protein. The format is ADME.
Series [13] concerns the target T1, Albumin. Description: Binding affinity to human serum albumin at 289 kelvin by fluorescence quenching measurement in presence of Cd2+ ions. The format is ADME. Conditions: isolated protein.
In series [14] the target is T1, Albumin. Description: Binding affinity to human serum albumin at 289 kelvin by fluorescence quenching measurement in presence of Bi3+ ions. Particulars: isolated protein. The class given is ADME.
Series [15] has as its target T1, Albumin. Description: Binding affinity to human serum albumin at 289 kelvin by fluorescence quenching measurement in presence of Zn2+ ions. The format is ADME. Conditions: isolated protein.
For series [16], the target named is T1, Albumin. Description: Binding affinity to human serum albumin at 289 kelvin by fluorescence quenching measurement in presence of K+ ions. The class given is ADME. Particulars: isolated protein.
In series [17] the target is T1, Albumin. Kind of series: Binding affinity to human serum albumin at 289 kelvin by fluorescence quenching measurement in presence of Al3+ ions. The format is ADME. Particulars: isolated protein.
Series [18] has as its target T1, Albumin. Description: Binding affinity to human serum albumin at 289 kelvin by fluorescence quenching measurement in presence of Hg2+ ions. The class given is ADME. Particulars: isolated protein.
In series [19] the target is T1, Albumin. Kind of series: Binding affinity to human serum albumin at 289 kelvin by fluorescence quenching measurement in presence of [NO3]- ions. The class given is ADME. Particulars: isolated protein.
Another series deals with K562. Kind of series: Anticancer activity against human K562 cells. The format is functional, cell-based.

T1 sequence (P02768 whole entry): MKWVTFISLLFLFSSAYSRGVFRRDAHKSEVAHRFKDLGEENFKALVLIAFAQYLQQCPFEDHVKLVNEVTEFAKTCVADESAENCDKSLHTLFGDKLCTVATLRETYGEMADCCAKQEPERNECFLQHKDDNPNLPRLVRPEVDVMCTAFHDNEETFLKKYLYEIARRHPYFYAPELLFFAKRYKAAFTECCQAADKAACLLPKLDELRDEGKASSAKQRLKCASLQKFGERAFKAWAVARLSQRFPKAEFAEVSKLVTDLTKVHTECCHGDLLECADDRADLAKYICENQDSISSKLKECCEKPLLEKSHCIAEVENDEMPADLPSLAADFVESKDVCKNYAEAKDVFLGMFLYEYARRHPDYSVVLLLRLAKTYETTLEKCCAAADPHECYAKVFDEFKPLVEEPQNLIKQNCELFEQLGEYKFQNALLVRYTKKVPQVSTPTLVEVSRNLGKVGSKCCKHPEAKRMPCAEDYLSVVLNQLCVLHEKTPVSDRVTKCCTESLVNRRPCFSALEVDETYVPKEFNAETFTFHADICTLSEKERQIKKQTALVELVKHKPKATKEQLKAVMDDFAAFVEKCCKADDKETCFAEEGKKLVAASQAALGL

As for `CN1C(=O)c2c(c3c4ccccc4n([C@@H]4O[C@H](CO)[C@@H](O)[C@H](O)[C@H]4O)c3c3[nH]c4ccccc4c23)C1=O`, the K was 231000 L/mol at Albumin [1]; 195000 L/mol on Albumin [2]; 145000 L/mol at Albumin [3]; 7.17 ×10⁶ L/mol on Albumin [4]; 3.48 ×10⁶ L/mol at Albumin [5]; 8.78 ×10⁶ L/mol at Albumin [6]. The K at Albumin [7] was 6.68 ×10⁶ L/mol; on Albumin [8], 4.87 ×10⁶ L/mol; at Albumin [9], 3.48 ×10⁶ L/mol; on Albumin [10], 4.76 ×10⁶ L/mol; at Albumin [11] it was 4.33 ×10⁶ L/mol; on Albumin [12], 5.32 ×10⁶ L/mol. Also, the K on Albumin [13] was 4.56 ×10⁶ L/mol; on Albumin [14], 7.01 ×10⁶ L/mol; on Albumin [15], 7.12 ×10⁶ L/mol; at Albumin [16], 8.9 ×10⁶ L/mol; on Albumin [17] it was 3.93 ×10⁶ L/mol; on Albumin [18], 8.41 ×10⁶ L/mol. Also, the K on Albumin [19] was determined as 3.4 ×10⁶ L/mol.

For `CO[C@H]1[C@H](O)[C@@H](O)[C@H](n2c3c(Cl)cccc3c3c4c(c5c6cccc(Cl)c6[nH]c5c32)C(=O)NC4=O)O[C@@H]1CO` [REBECCAMYCIN], 4 µM corresponded to half-maximal inhibition in the series with K562 (IC50). That is a single-digit micromolar value.
